Source: US20190159451A1, “ACTIVE COMPOUND COMBINATIONS AND METHODS TO PROTECT THE PROPAGATION MATERIAL OF PLANTS” (Bayer CropScience Aktiengesellschaft, priority 2016, published 2019)

Legend:
Ctenocephalides felis = Ctenocephalides felis in-vitro contact test, adult cat flea; assay type: in vivo; conditions: 5 μg/cm^2 (=500 g/ha), after 48 hours
Protocol: Ctenocephalides felis—In-Vitro Contact Tests Adult Cat Flea
9 mg compound is solved in 1 ml acetone and diluted with acetone to the desired concentration. 250 μl of the test solution is filled in 25 ml glass test tubes and homogeneously distributed on the inner walls by rotation and tilting on a shaking device (2 h at 30 rpm). With a compound concentration of 900 ppm, an inner surface of 44.7 cm^2 and a homogeneous distribution, a dose of […] is achieved.
After the solvent has evaporated, each test tube is filled with 5-10 adult cat fleas (Ctenocephalides felis), closed with a perforated lid and incubated in a lying position at room temperature and relative humidity. After 48 hours efficacy is determined. The fleas are patted on the ground of the tubes and are incubated on a heating plate at 45-50° C. for at most 5 minutes. Immotile or uncoordinated moving fleas, which are not able to escape the heat by climbing upwards, are marked as dead or moribund.
An efficacy of 100% means all fleas are dead or moribund; 0% means no fleas are dead or moribund.

Diabrotica balteata = Diabrotica balteata spray test; assay type: in vivo; conditions: 160 μg/well, after 7 days, larvae on germinated wheat seeds
Protocol: Diabrotica balteata—Spray Test
(§1) Solvent: 78.0 parts by weight of acetone • • 1.5 parts by weight of dimethylformamide
(§2) Emulsifier: alkylarylpolyglycol ether
(§3) To produce a suitable preparation of active compound, 1 part by weight of active compound is mixed with the stated amount of solvent, and the concentrate is diluted with water, containing an emulsifier concentration of 1000 ppm, to the desired concentration. Further test concentrations are prepared by dilution with emulsifier containing water.
Soaked wheat seeds (Triticum aestivum) are placed in a multiple well plate filled with agar and some water and are incubated for 1 day to germinate (5 seeds per well). The germinated wheat seeds are sprayed with a test solution containing the desired concentration of the active ingredient. Afterwards each unit is infected with 10-20 larvae of the banded cucumber beetle (Diabrotica balteata).
After 7 days efficacy in % is determined. 100% means all the seedlings have grown up like in the untreated, uninfected control; 0% means none of the seedlings have grown.

Lucilia cuprina = Lucilia cuprina test (LUCICU); assay type: in vivo; conditions: 48 h
Protocol: Lucilia cuprina—Test (LUCICU)
(§4) Solvent: dimethyl sulfoxide
10 mg active compound are dissolved in 0.5 ml Dimethylsulfoxid. Serial dilutions are made to obtain the desired rates.
Approximately 20 1st instar larvae of the Australian sheep blowfly (Lucilia cuprina) are transferred into a test tube containing minced horse meat and compound solution of the desired concentration.
After 2 days mortality in % is determined. 100% means all the larvae have been killed; 0% means none of the larvae have been killed.

Musca domestica = Musca domestica test (MUSCDO); assay type: in vivo; conditions: for mortality: after 2 days, adult house flies
Protocol: Musca domestica—Test (MUSCDO)
as §4
To produce a suitable preparation of active compound, 10 mg of active compound are dissolved in 0.5 ml solvent, and the concentrate is diluted with water to the desired concentration.
10 adult house flies (Musca domestica) are transferred into a container, containing a sponge soaked with a mixture of sugar solution and compound solution of the desired concentration.
After 2 days mortality in % is determined. 100% means all the flies have been killed; 0% means none of the flies have been killed.

Log P (HCOOH) = assay type: physicochemical; conditions: HCOOH (formic acid); read-out: Log P-Wert (HCOOH)
Myzus persicae [1] = test: Myzus persicae spray test; assay type: in vivo; conditions: for mortality: 100 g/ha, after 6 days, Chinese cabbage leaf disks
Protocol: Myzus persicae—Spray Test
(§5) Solvent: 78.0 parts by weight acetone • 1.5 parts by weight dimethylformamide
as §2
as §3, with “solvents” for “solvent,”, “and” for “and the concentrate”
Chinese cabbage (Brassica pekinensis) leaf disks infected with all instars of the green peach aphid (Myzus persicae), are sprayed with a preparation of the active ingredient of the desired concentration.
After 6 days mortality in % is determined. 100% means all aphids have been killed and 0% means none of the aphids have been killed.

Nezara viridula = Nezara viridula spray test; assay type: in vivo
Protocol: Nezara viridula—Spray Test
as §1, §2, §3
Barley plants (Hordeum vulgare) infested with larvae of the southern green stink bug (Nezara viridula) are sprayed with a test solution containing the desired concentration of the active ingredient.
After 4 days mortality in % is determined. 100% means all the stink bugs have been killed; 0% means none of the stink bugs have been killed.

Myzus persicae [2] = test: Myzus persicae oral test; assay type: in vivo
Protocol: Solvent: 100 parts by weight acetone
To produce a suitable preparation of active compound, 1 part by weight of active compound is mixed with the stated amount of solvent, and the concentrate is diluted with water to the desired concentration. 50 μl compound solution is filled in microtiter plates and 150 μl IPL41 insect medium (33%+15% sugar) is added to obtain a total volume of […] per well. Afterwards the plates are sealed with parafilm through which a mixed population of the green peach aphid (Myzus persicae) can suck on the compound preparation.
After 5 days mortality in % is determined. 100% means all aphids have been killed and 0% means none of the aphids have been killed.

Tetranychus urticae = test: whole plant or invertebrate; assay type: in vivo; conditions: in Phaseolus vulgaris, foliar, 144 h
Protocol: Tetranychus urticae—Spray Test OP-Resistant
as §5, §2
as §3, with “solvents” for “solvent,”, “and” for “and the concentrate”
French bean (Phaseolus vulgaris) leaf disks infected with all instars of the two spotted spidermite (Tetranychus urticae), are sprayed with a preparation of the active ingredient of the desired concentration.
After 6 days mortality in % is determined. 100% means all spider mites have been killed and 0% means none of the spider mites have been killed.

Nilaparvata lugens = Nilaparvata lugens spray test; assay type: in vivo
Protocol: Nilaparvata lugens—Spray Test
as §1, §2
as §3, with “solvents” for “solvent,”, “and” for “and the concentrate”
Rice plants (Oryza sativa) are sprayed with a preparation of the active ingredient of the desired concentration and the plants are infested with the brown planthopper (Nilaparvata lugens).
After 4 days mortality in % is determined. 100% means all planthoppers have been killed and 0% means none of the planthoppers have been killed.

Phaedon cochleariae = Phaedon cochleariae spray test; assay type: in vivo; conditions: 20 g/ha, after 7 days, larvae on Chinese cabbage leaf disks
Protocol: Phaedon cochleariae—Spray Test
as §1, §2
as §3, with “solvents” for “solvent,”, “and” for “and the concentrate”
Chinese cabbage (Brassica pekinensis) leaf disks are sprayed with a preparation of the active ingredient of the desired concentration. Once dry, the leaf disks are infested with mustard beetle larvae (Phaedon cochleariae).
After 7 days mortality in % is determined. 100% means all beetle larvae have been killed and 0% means none of the beetle larvae have been killed.

[3] = Myzus persicae, in Brassica rapa, foliar, 144 h

In the case of `O=C(/C=C1\SCCN1Cc1ccc(Cl)nc1)C(F)(F)F` [Example I-1, 3-[3-[(6-Chloro-3-pyridinyl)methyl]-2-thiazolidinylidene]-1,1,1-trifluoro-2-propanone], the “efficacy (fleas dead or moribund)” value (Ctenocephalides felis) is reported as 100%, the “efficacy (seedlings grown)” value (Diabrotica balteata) is reported as 100% and the mortality at 100 ppm (Lucilia cuprina) is reported as 100%. The mortality at 4 ppm (Musca domestica; Musca domestica, 48 h) was 90%, the chromatographic logP (Log P (HCOOH)) was 2.21 and the mortality at 100 g/ha (Myzus persicae [1]; [3]) was 90%.
In the case of `O=C(/C=C1\SCCN1Cc1ccc(F)nc1)C(F)(F)F` [Example I-2, 3-[3-[(6-Fluoro-3-pyridinyl)methyl]-2-thiazolidinylidene]-1,1,1-trifluoro-2-propanone], the mortality at 500 g/ha (Nezara viridula; Nezara viridula, in Hordeum vulgare, 96 h) is reported as 90%, the mortality at 20 ppm (Myzus persicae [2]; Myzus persicae, po, 120 h) is reported as 100% and the “efficacy (fleas dead or moribund)” value (Ctenocephalides felis) is reported as 100%. The “efficacy (seedlings grown)” value (Diabrotica balteata) was 100%, the mortality at 100 ppm (Lucilia cuprina) was 100% and the mortality at 4 ppm (Musca domestica; Musca domestica, 48 h) was 80%. It also gave a mortality at 20 ppm (Musca domestica; Musca domestica, 48 h) of 95%, a chromatographic logP (Log P (HCOOH)) of 2.25 and a mortality at 500 g/ha (Tetranychus urticae) of 80%. The mortality at 500 g/ha (Myzus persicae [1]; [3]) was 100% and the mortality at 500 g/ha (Nilaparvata lugens; Nilaparvata lugens, in Oryza sativa, 96 h) was 100%.
In the case of `O=C(/C=C1\NCCN1Cc1ccc(Br)nc1)C(F)(F)F` [Example I-3, 3-[1-[(6-Bromo-3-pyridinyl)methyl]-2-imidazolidinylidene]-1,1,1-trifluoro-2-propanone], the “efficacy (fleas dead or moribund)” value (Ctenocephalides felis) is reported as 100%, the “efficacy (seedlings grown)” value (Diabrotica balteata) is reported as 100% and the mortality at 100 ppm (Lucilia cuprina) is reported as 100%. The mortality at 4 ppm (Musca domestica; Musca domestica, 48 h) was 80% and the mortality at 100 g/ha (Myzus persicae [1]; [3]) was 90%.
For `O=C(C=C1SCCN1Cc1ccc(Br)nc1)C(F)(F)F` [Example I-4], the “efficacy (fleas dead or moribund)” value (Ctenocephalides felis) was 100%, the “efficacy (seedlings grown)” value (Diabrotica balteata) was 100% and the mortality (Musca domestica; 4 ppm) was 100%.
For `O=C(C=C1NCCN1Cc1ccc(Cl)nc1)C(F)(F)F` [Example I-5], the “efficacy (fleas dead or moribund)” value (Ctenocephalides felis) was 100% and the mortality (Musca domestica; 4 ppm) was 100%.
For `O=C(C=C1NCCCN1Cc1ccc(F)nc1)C(F)(F)F` [Example I-6], the “efficacy (fleas dead or moribund)” value (Ctenocephalides felis) was 100%, the “efficacy (seedlings grown)” value (Diabrotica balteata) was 100% and the mortality (Musca domestica; 20 ppm) was 100%.
In the case of `O=C(C=C1NCCCN1Cc1ccc(Cl)nc1)C(F)(F)F` [Example I-7], the mortality (Phaedon cochleariae) is reported as 100%, the “efficacy (fleas dead or moribund)” value (Ctenocephalides felis) is reported as 100% and the mortality (Myzus persicae [1]) is reported as 90%.
For `O=C(C=C1NCCCN1Cc1ccc(Br)nc1)C(F)(F)F` [Example I-8], the mortality (Phaedon cochleariae) was 100%, the mortality (Nezara viridula; 500 g/ha, after 4 days, larvae on barley plants) was 90% and the mortality (Myzus persicae [2]; 20 ppm, after 5 days, oral) was 100%. The “efficacy (fleas dead or moribund)” value (Ctenocephalides felis) was 100%, the “efficacy (seedlings grown)” value (Diabrotica balteata) was 100% and the mortality (Musca domestica; 20 ppm) was 100%. The mortality (Myzus persicae [1]) was 90% and the mortality (Nilaparvata lugens; 500 g/ha, after 4 days, rice plants) was 100%.
